For seven compounds, TGI results are on record in PubChem BioAssay (NCI).

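Results reflect a 48-hour exposure of cells in 96-well plates to compound at five concentrations. The concentration for full growth arrest is given as TGI.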 Where a SMILES comes first, the peptide text is derived from it. The star is where a group is joined. Boc = CC(C)(C)OC(=O)*; tBu = CC(C)(C)*

Among the test systems are SW-620 colon; SK-MEL-5 melanoma; HL-60(TB) leukemia; KM12 colon; EKVX NSCLC; OVCAR-4 ovarian; IGROV1 ovarian; M14 melanoma; MOLT-4 leukemia; K-562 leukemia; UACC-62 melanoma; HCT-116 colon; HCC-2998 colon; SNB-19 CNS; CCRF-CEM leukemia; A549 NSCLC; OVCAR-5 ovarian; SNB-75 CNS; MCF7 breast; SF-295 CNS.
What all share (assay): NCI tumour cell line growth inhibition, 48 h

Regarding `CC1=NNC(=O)[C@H]2[C@H]1CCC1[C@@H]2CC[C@]2(C)[C@@H](O)CC[C@@H]12` (stereo not given in full), the TGI with SW-620 colon, with SK-MEL-5 melanoma, in the test with HL-60(TB) leukemia, with KM12 colon, in the test with EKVX NSCLC and with OVCAR-4 ovarian was over 100 µM each time. The TGI in the test on IGROV1 ovarian, in the test on M14 melanoma, in the test with MOLT-4 leukemia, in the test with K-562 leukemia, in the test with UACC-62 melanoma and in the test with HCT-116 colon was over 100 µM each time. In addition, the TGI in the test with HCC-2998 colon, with SNB-19 CNS, in the test with CCRF-CEM leukemia, in the test with A549 NSCLC, in the test with OVCAR-5 ovarian and with SNB-75 CNS was over 100 µM in each case. Further, the TGI in the test on MCF7 breast and in the test with SF-295 CNS was over 100 µM each time.
As for `CC(OC(C)(C)C)C(NC(=O)C(N)CCCCNC(=O)OC(C)(C)C)C(=O)NC(Cc1ccccc1)C(=O)O` (stereo not given) (H-Lys(Boc)-Thr(tBu)-Phe-OH; configuration not given here), the TGI with SW-620 colon, with SK-MEL-5 melanoma, in the test with HL-60(TB) leukemia, with KM12 colon, with EKVX NSCLC and with OVCAR-4 ovarian was over 100 µM throughout. For the same compound, the TGI in the test with IGROV1 ovarian, in the test with M14 melanoma, in the test with MOLT-4 leukemia, in the test on K-562 leukemia, in the test with UACC-62 melanoma and in the test with HCT-116 colon was over 100 µM each time. The TGI in the test with HCC-2998 colon, in the test with SNB-19 CNS, in the test with CCRF-CEM leukemia, in the test on A549 NSCLC, with OVCAR-5 ovarian and in the test with SNB-75 CNS was over 100 µM throughout. Also, the TGI with MCF7 breast and in the test with SF-295 CNS was over 100 µM throughout.
Consider `O=C(O)Cc1ccc(Oc2nc3ccccc3nc2-c2ccccc2)cc1`, for which the TGI was over 100 µM in the test with SW-620 colon; over 100 µM in the test on SK-MEL-5 melanoma; over 100 µM with HL-60(TB) leukemia; over 100 µM with KM12 colon; 79.5 µM with EKVX NSCLC; over 100 µM with OVCAR-4 ovarian. Further, the TGI was over 100 µM with IGROV1 ovarian; over 100 µM with M14 melanoma; over 100 µM in the test with MOLT-4 leukemia; over 100 µM in the test on K-562 leukemia; 75.7 µM in the test on UACC-62 melanoma; over 100 µM in the test with HCT-116 colon. Further, the TGI in the test on HCC-2998 colon is 99.5 µM; in the test with SNB-19 CNS, over 100 µM; in the test with CCRF-CEM leukemia it was over 100 µM; in the test with A549 NSCLC, over 100 µM; in the test with OVCAR-5 ovarian, over 100 µM; in the test with SNB-75 CNS, over 100 µM. Further, the TGI in the test with MCF7 breast and in the test on SF-295 CNS was over 100 µM throughout.
On to `CN(CCCNC(=O)c1c2ccc3ccccc3c2nn1C)CCCNC(=O)c1c2ccc3ccccc3c2nn1C`, for which the TGI in the test with SW-620 colon was 21.3 µM; with SK-MEL-5 melanoma, 5.92 µM; in the test on HL-60(TB) leukemia it was 29.8 µM; with KM12 colon, 23.7 µM; with EKVX NSCLC it was 22.3 µM; with OVCAR-4 ovarian, 24 µM. The TGI with IGROV1 ovarian came to 23.3 µM; in the test on M14 melanoma it was 3.99 µM; in the test with MOLT-4 leukemia, 24 µM; with K-562 leukemia, 12 µM; in the test on UACC-62 melanoma, 3.76 µM; in the test on HCT-116 colon, 28 µM. Also, the TGI with HCC-2998 colon was found to be 3.44 µM; in the test on SNB-19 CNS, 28.6 µM; in the test on CCRF-CEM leukemia, 23.6 µM; in the test with A549 NSCLC it was 26.9 µM; in the test on OVCAR-5 ovarian it was 25.4 µM; in the test with SNB-75 CNS it was 21.4 µM. Moreover, the results for the TGI with MCF7 breast and in the test with SF-295 CNS were 15.6 µM and 9.77 µM, respectively.
For the compound `CC1=C2CC(C)(C)CC(=O)C2(C)CCC1=O` (stereo not given), the TGI in the test on SW-620 colon, in the test on SK-MEL-5 melanoma, with HL-60(TB) leukemia, in the test on KM12 colon, in the test with EKVX NSCLC and with OVCAR-4 ovarian was over 100 µM each time. The TGI in the test with IGROV1 ovarian, in the test on M14 melanoma, in the test on MOLT-4 leukemia, with K-562 leukemia, in the test on UACC-62 melanoma and in the test on HCT-116 colon was over 100 µM each time. For the same compound, the TGI with HCC-2998 colon, in the test with SNB-19 CNS, with CCRF-CEM leukemia, in the test on A549 NSCLC, in the test on OVCAR-5 ovarian and in the test on SNB-75 CNS was over 100 µM each time. Further, the TGI with MCF7 breast and in the test with SF-295 CNS was over 100 µM each time.
Regarding `CC(=O)Nc1sccc1S(=O)(=O)c1ccc(Cl)cc1`, the TGI in the test on SW-620 colon, with SK-MEL-5 melanoma, with HL-60(TB) leukemia, in the test on KM12 colon, in the test with EKVX NSCLC and in the test with OVCAR-4 ovarian was over 100 µM each time. The TGI in the test on IGROV1 ovarian, in the test with M14 melanoma, in the test with MOLT-4 leukemia, with K-562 leukemia, in the test with UACC-62 melanoma and in the test with HCT-116 colon was over 100 µM throughout. For the same compound, the TGI in the test with HCC-2998 colon, in the test with SNB-19 CNS, in the test with CCRF-CEM leukemia, in the test on A549 NSCLC, in the test on OVCAR-5 ovarian and in the test on SNB-75 CNS was over 100 µM throughout. Also, the TGI with MCF7 breast and in the test with SF-295 CNS was over 100 µM each time.
With `Clc1ccc(Cn2cc(/C=N/n3cnnc3)c3ccccc32)cc1`, the TGI with SW-620 colon, in the test with SK-MEL-5 melanoma, in the test with HL-60(TB) leukemia, in the test on KM12 colon, with EKVX NSCLC and with OVCAR-4 ovarian was over 100 µM each time. For the same compound, the TGI with IGROV1 ovarian, in the test on M14 melanoma, in the test on MOLT-4 leukemia, in the test with K-562 leukemia, with UACC-62 melanoma and in the test with HCT-116 colon was over 100 µM each time. Further, the TGI in the test on HCC-2998 colon is 31.4 µM; in the test with SNB-19 CNS, over 100 µM; with CCRF-CEM leukemia, over 100 µM; with A549 NSCLC, over 100 µM; with OVCAR-5 ovarian it was 42.5 µM; with SNB-75 CNS, 68.5 µM. Moreover, the TGI in the test on MCF7 breast and with SF-295 CNS was over 100 µM in each case.
